The text below walks through data of patent US7902201B2, “Isoxazolo-pyrazine derivatives” (Hoffmann-La Roche Inc., priority 2007, dated 2011).

The test concerns the target T1, GABA A receptors containing the α5 subunit (α5β3γ2) (Homo sapiens, UniProt P18507+P31644).
T1 construct: expressed in transfected cells; host or cells: HEK293 (transiently transfected); membranes prepared from cell pellets
In words: [3H]flumazenil competition binding assay, human GABA A receptor (hKi). Particulars: human receptor transiently transfected in HEK293 cells, means of two determinations. The procedure:
The affinity of compounds at GABA A receptor subtypes was measured by competition for [3H]flumazenil (85 Ci/mmol; Roche) binding to HEK293 cells expressing rat (stably transfected) or human (transiently transfected) receptors of composition α1β3γ2, α2β3γ2, α3β3γ2 and α5β3γ2.
Cell pellets were suspended in Krebs-tris buffer (4.8 mM KCl, 1.2 mM CaCl2, 1.2 mM MgCl2, 120 mM NaCl, 15 mM Tris; pH 7.5; binding assay buffer), homogenized by polytron for ca. 20 sec on ice and centrifuged for 60 min at 4° C. (50000 g; Sorvall, rotor: SM24=20000 rpm). The cell pellets were resuspended in Krebs-tris buffer and homogenized by polytron for ca. 15 sec on ice. Protein was measured (Bradford method, Bio-Rad) and aliquots of 1 mL were prepared and stored at −80° C.
Radioligand binding assays were carried out in a volume of 200 μL (96-well plates) which contained 100 μL of cell membranes, [3H]flumazenil at a concentration of 1 nM for α1, α2, α3 subunits and 0.5 nM for α5 subunits and the test compound in the range of […]. Nonspecific binding was defined by 10^−5 M diazepam and typically represented less than 5% of the total binding. Assays were incubated to equilibrium for 1 hour at. 4° C. and harvested onto GF/C uni-filters (Packard) by filtration using a Packard harvester and washing with ice-cold wash buffer (50 mM Tris; pH 7.5). After drying, filter-retained radioactivity was detected by liquid scintillation counting. Ki values were calculated using Excel-Fit (Microsoft) and are the means of two determinations.
With “5-[(5-Methyl-3-phenyl-isoxazol-4-ylmethyl)-amino]-pyrazine-2-carboxylic acid (tetrahydro-pyran-4-yl)-amide [Example 11]”, the Ki (commonly the equilibrium dissociation constant of an inhibitor or competing ligand from its target) came out at 12.1 nM.

In the case of “5-[(5-Methyl-3-phenyl-isoxazol-4-ylmethyl)-amino]-pyrazine-2-carboxylic acid cyclopropylamide [Example 10]”, affinity was put at a Ki of 10.4 nM.

On to `COC(=O)c1cnc(OCc2c(-c3ccccc3)noc2C)cn1` [Example 1, 5-(5-Methyl-3-phenyl-isoxazol-4-ylmethoxy)-pyrazine-2-carboxylic acid methyl ester], for which the inhibition constant (Ki) amounted to 29 nM.

`Cc1onc(-c2ccccc2)c1COc1cnc(C(=O)NCC2CC2)cn1` [Example 2, 5-(5-Methyl-3-phenyl-isoxazol-4-ylmethoxy)-pyrazine-2-carboxylic acid cyclopropylmethyl-amide]: the inhibition constant Ki was found to be 3.1 nM.

`Cc1onc(-c2ccccc2)c1COc1cnc(C(=O)NC(C)C)cn1` [Example 3, 5-(5-Methyl-3-phenyl-isoxazol-4-ylmethoxy)-pyrazine-2-carboxylic acid isopropylamide] showed a Ki of 1.2 nM.

On to `Cc1onc(-c2ccccc2)c1COc1cnc(C(=O)NC(C)(C)C)cn1` [Example 4, 5-(5-Methyl-3-phenyl-isoxazol-4-ylmethoxy)-pyrazine-2-carboxylic acid tert-butylamide], for which the inhibition constant Ki turned out to be 10.8 nM.

Consider `Cc1onc(-c2ccccc2)c1COc1cnc(C(=O)NC2CC2)cn1` [Example 5, 5-(5-Methyl-3-phenyl-isoxazol-4-ylmethoxy)-pyrazine-2-carboxylic acid cyclopropylamide], for which the affinity, expressed as Ki, was 1.9 nM.

Regarding `Cc1onc(-c2ccccc2)c1COc1cnc(C(=O)NC2CCOCC2)cn1` [Example 6, 5-(5-Methyl-3-phenyl-isoxazol-4-ylmethoxy)-pyrazine-2-carboxylic acid (tetrahydro-pyran-4-yl)-amide], the affinity, expressed as Ki, was 1.2 nM.

For the molecule `Cc1onc(-c2ccccc2)c1COc1cnc(C(=O)NC2CCC(F)(F)CC2)cn1` [Example 7, 5-(5-Methyl-3-phenyl-isoxazol-4-ylmethoxy)-pyrazine-2-carboxylic acid (4,4-difluoro-cyclohexyl)-amide], the inhibition constant Ki worked out at 10.6 nM.

The molecule `Cc1onc(-c2ccccc2)c1COc1cnc2ccccc2n1` [Example 8, 2-(5-Methyl-3-phenyl-isoxazol-4-ylmethoxy)-quinoxaline] came in with a Ki of 7.4 nM.

Molecule `Cc1onc(-c2ccccc2)c1CNc1cnc(C(=O)NC(C)C)cn1` [Example 9, 5-[(5-Methyl-3-phenyl-isoxazol-4-ylmethyl)-amino]-pyrazine-2-carboxylic acid isopropylamide] yielded a Ki of 9.6 nM.

For the molecule `Cc1onc(-c2ccc(F)cn2)c1COc1cnc(C(=O)NC2CCOCC2)cn1` [Example 12, 5-[3-(5-Fluoro-pyridin-2-yl)-5-methyl-isoxazol-4-ylmethoxy]-pyrazine-2-carboxylic acid (tetrahydro-pyran-4-yl)-amide], the affinity, expressed as Ki, was 0.3 nM.

`O=C(NCC(F)(F)F)c1cnc(OCc2conc2-c2ccc(F)cc2)cn1` [Example 13, 5-[3-(4-Fluoro-phenyl)-isoxazol-4-ylmethoxy]-pyrazine-2-carboxylic acid (2,2,2-trifluoro-ethyl)-amide] displayed an inhibitory constant (Ki) of 24 nM.

Consider `O=C(NCC1CC1)c1cnc(OCc2conc2-c2ccc(F)cc2)cn1` [Example 14, 5-[3-(4-Fluoro-phenyl)-isoxazol-4-ylmethoxy]-pyrazine-2-carboxylic acid cyclopropylmethyl-amide], for which the Ki was found to be 21 nM.

Molecule `CC(C)NC(=O)c1cnc(OCc2conc2-c2ccc(F)cc2)cn1` [Example 15, 5-[3-(4-Fluoro-phenyl)-isoxazol-4-ylmethoxy]-pyrazine-2-carboxylic acid isopropylamide] returned an inhibition constant Ki of 11 nM.

Molecule `CC(C)NC(=O)c1cnc(OCc2conc2-c2ccc(Cl)cc2)cn1` [Example 16, 5-[3-(4-Chloro-phenyl)-isoxazol-4-ylmethoxy]-pyrazine-2-carboxylic acid isopropylamide] came in with an inhibition constant (Ki) of 11.6 nM.

The molecule `C[C@@H](CO)NC(=O)c1cnc(OCc2conc2-c2ccc(Cl)cc2)cn1` [Example 17, 5-[3-(4-Chloro-phenyl)-isoxazol-4-ylmethoxy]-pyrazine-2-carboxylic acid ((S)-2-hydroxy-1-methyl-ethyl)-amide] gave a Ki of 32 nM.

Consider `C[C@H](CO)NC(=O)c1cnc(OCc2conc2-c2ccc(Cl)cc2)cn1` [Example 18, 5-[3-(4-Chloro-phenyl)-isoxazol-4-ylmethoxy]-pyrazine-2-carboxylic acid ((R)-2-hydroxy-1-methyl-ethyl)-amide], for which the inhibitory constant (Ki) amounted to 7.4 nM.

In turn, `O=C(NC1CCOCC1)c1cnc(OCc2conc2-c2ccccn2)cn1` [Example 19, 5-(3-Pyridin-2-yl-isoxazol-4-ylmethoxy)-pyrazine-2-carboxylic acid (tetrahydro-pyran-4-yl)-amide] returned an inhibition constant Ki of 14.3 nM.

For the molecule `CC(C)NC(=O)c1cnc(OCc2conc2-c2ccccn2)cn1` [Example 20, 5-(3-Pyridin-2-yl-isoxazol-4-ylmethoxy)-pyrazine-2-carboxylic acid isopropylamide], the affinity corresponds to a Ki of 9.6 nM.

`O=C(NC1CC1)c1cnc(OCc2conc2-c2ccccn2)cn1` [Example 21, 5-(3-Pyridin-2-yl-isoxazol-4-ylmethoxy)-pyrazine-2-carboxylic acid cyclopropylamide] yielded an inhibition constant (Ki) of 13.7 nM.
